This is an account of results in patent US20250268959A1, “COMPOSITIONS CONTAINING INDOLE-DERIVED METABOLITES AND METHODS OF USE THEREOF” (Imvela Corp., priority 2024, published 2025).

Read-outs that look alike come from different tables or passages of the source.

Assay [1] deals with T1, AhR (Homo sapiens, UniProt P35869).
T1 sequence (P35869 11-848): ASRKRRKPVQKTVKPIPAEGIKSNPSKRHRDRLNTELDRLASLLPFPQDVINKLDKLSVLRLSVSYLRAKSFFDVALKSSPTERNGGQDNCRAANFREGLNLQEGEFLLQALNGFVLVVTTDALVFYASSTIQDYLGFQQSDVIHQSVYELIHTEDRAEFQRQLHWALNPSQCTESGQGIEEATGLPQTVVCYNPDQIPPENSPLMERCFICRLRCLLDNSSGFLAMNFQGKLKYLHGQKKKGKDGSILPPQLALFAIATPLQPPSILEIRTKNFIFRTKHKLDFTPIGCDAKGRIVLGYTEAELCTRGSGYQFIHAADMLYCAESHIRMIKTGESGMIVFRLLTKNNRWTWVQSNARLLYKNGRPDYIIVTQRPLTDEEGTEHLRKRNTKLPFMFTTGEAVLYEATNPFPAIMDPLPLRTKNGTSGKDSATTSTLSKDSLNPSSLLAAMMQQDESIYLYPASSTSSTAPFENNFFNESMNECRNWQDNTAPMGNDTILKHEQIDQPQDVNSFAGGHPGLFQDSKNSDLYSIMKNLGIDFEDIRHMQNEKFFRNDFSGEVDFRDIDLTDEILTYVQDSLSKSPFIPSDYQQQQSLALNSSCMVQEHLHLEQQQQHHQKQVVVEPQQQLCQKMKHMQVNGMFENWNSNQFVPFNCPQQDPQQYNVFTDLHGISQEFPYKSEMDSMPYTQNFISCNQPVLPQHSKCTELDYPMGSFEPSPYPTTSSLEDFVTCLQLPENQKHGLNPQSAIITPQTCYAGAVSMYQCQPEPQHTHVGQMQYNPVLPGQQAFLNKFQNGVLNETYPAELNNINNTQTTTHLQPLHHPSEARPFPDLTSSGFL
The assay can be described thus: AhR activation, in vitro luminescence assay in human cell lines expressing AhR. The following applies: human cell line expressing AhR; 200 μM; normalized to methylcholanthrene (FIG. 5). Format: cell-based. The procedure: (§1) The utility of ILA and IAld in multiple host was validated by an in vitro assay. Human or canine cell lines expressing AhR were exposed to ILA or IAld at 200 μM, and AhR activation was assayed using in vitro luminescence.

Assay [2] concerns the target T2, AhR (Canis lupus familiaris, UniProt A0A8I3RSX6).
T2 sequence (A0A8I3RSX6 1-853): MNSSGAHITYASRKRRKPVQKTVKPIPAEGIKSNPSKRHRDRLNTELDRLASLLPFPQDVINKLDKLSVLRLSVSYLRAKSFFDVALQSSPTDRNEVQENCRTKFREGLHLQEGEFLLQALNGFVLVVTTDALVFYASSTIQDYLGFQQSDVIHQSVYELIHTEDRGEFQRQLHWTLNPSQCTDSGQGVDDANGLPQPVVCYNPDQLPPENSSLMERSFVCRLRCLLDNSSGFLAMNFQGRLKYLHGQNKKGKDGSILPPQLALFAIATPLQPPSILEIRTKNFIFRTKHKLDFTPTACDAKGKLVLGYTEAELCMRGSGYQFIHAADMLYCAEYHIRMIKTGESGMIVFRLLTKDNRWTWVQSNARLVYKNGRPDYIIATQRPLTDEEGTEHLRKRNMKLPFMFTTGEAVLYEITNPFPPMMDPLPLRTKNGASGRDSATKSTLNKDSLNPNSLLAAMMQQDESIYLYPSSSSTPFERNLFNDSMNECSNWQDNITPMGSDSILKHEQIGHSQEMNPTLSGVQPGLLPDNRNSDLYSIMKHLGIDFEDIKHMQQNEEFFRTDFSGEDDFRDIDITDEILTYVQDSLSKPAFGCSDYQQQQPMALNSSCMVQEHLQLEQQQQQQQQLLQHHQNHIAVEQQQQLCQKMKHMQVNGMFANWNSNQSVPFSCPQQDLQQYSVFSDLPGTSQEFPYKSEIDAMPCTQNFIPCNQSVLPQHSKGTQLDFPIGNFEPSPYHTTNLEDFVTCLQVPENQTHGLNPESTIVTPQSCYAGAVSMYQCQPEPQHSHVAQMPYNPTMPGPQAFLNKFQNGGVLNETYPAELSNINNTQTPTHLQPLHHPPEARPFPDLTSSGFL
In words: AhR activation, in vitro luminescence assay in canine cell lines expressing AhR. The assay is classed as cell-based. The following applies: canine cell line expressing AhR; 200 μM; normalized to methylcholanthrene (FIG. 5). On the procedure:
as §1

The conditions of assay [3]: rats; IPA supplementation; over 1 week; cited from earlier work.
The conditions of assay [4]: mice; IPA supplementation; in 2 weeks; cited from earlier work.

For `O=Cc1c[nH]c2ccccc12` [IAld, indole-3-carboxaldehyde], the AhR activation result in assay [1] and in assay [2] was “AhR activation was observed” in each case.
With `O=C(O)CCc1c[nH]c2ccccc12` [IPA, indole-3-propionic acid], the entries for the “reduction of weight gain” value in assay [3] and in assay [4] were roughly 50% and roughly 60%, respectively.
For `O=C(O)C(O)Cc1c[nH]c2ccccc12` (stereo not drawn) [ILA, indole-3-lactic acid], the AhR activation result in assay [1] and in assay [2] was “AhR activation was observed” each time.
